Measured values as given in patent US11242337B2, “Compounds useful for treating gastrointestinal tract disorders” (Ardelyx, Inc., priority 2017, dated 2022).

How the values were obtained:
NHE3 = biological target: T1, NHE3 (Homo sapiens, UniProt P48764); test: Cell-based assay of NHE-3 activity (pre-incubation inhibition), human; settings: human Preincubation; for pIC50: 0-30 μM test compound
T1 construct: expressed in transfected cells
T1 sequence (P48764 26-834): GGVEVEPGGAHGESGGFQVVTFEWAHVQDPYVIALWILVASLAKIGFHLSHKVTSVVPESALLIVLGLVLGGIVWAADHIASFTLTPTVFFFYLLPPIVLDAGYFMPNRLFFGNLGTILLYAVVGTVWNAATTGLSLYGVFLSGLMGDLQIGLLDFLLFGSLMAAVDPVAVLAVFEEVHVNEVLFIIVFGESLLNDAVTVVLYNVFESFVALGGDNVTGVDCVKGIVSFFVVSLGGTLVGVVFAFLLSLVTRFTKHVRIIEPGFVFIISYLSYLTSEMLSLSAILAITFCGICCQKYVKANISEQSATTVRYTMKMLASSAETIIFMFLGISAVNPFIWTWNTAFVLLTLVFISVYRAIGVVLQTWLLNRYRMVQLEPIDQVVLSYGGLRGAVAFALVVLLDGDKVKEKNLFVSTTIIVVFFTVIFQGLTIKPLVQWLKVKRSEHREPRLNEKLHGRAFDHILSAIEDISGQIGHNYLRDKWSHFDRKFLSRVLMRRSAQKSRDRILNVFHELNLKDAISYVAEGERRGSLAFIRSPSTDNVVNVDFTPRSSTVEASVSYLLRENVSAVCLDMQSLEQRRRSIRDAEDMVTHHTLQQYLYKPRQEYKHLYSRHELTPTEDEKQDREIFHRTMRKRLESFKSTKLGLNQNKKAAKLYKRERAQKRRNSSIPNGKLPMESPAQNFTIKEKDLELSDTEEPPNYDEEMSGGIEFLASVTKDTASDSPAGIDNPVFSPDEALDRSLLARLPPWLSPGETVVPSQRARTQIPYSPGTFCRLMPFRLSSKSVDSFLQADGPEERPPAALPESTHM
T1 sequence (Q99653 2-195 partner limits assumed): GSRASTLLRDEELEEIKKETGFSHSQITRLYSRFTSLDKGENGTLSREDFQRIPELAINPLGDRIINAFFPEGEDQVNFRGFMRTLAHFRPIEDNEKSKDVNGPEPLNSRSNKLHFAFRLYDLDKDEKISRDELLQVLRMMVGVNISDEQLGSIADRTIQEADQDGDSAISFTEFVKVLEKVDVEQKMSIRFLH
How it was run: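 PS120 fibroblasts stably expressing human NHE3 and NHERF2, loaded 30 min at 37 °C with 5 μM BCECF-AM in NH4Cl buffer, then acidified 10 min at room temperature in Na+-free buffer with 0–30 μM compound. Initial rate of BCECF fluorescence ratio change (FLIPR) per minute taken as Na+/H+ activity.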

[1] = system: human duodenum monolayer culture; test: Sustained inhibition of apical acid secretion in human organoid monolayer cell cultures (duodenum); type: cell-based; settings: Homo sapiens
Procedure: Basal media (BM) consisted of advanced DMEM/F12 containing 10 mM HEPES Invitrogen, 15630-080), 1:100 Glutamax (Invitrogen, 35050-061), and 1:100 penicillin/streptomycin (Invitrogen, 15140-122). Supplemented basal media (SBM) contained 1:100 N2 (Invitrogen, 17502-048), 1:50 B27 (Invitrogen, 12587-010), 1 mM N-acetylcysteine (Sigma, A9165), and 10 nM [Leu15]-gastrin I (Sigma, G9145). Growth factors used included 50 ng per mL mouse EGF (Peprotech, 315-09), 100 ng per mL mouse noggin (Peprotech, 250-38), 500 ng per mL human R-spondin 1 (R&D, 4645-RS), 100 ng per mL mouse Wnt-3a (R&D, 1324-WN), 20 μM. Y-27632 (Tocris, 1254), 10 mM nicotinamide (Sigma, N0636), 500 nM A83-01 (Tocris, 2939), 10 μM SB202190 (Tocris, 1264). Transwells were 0.4 μm pore polyester membrane 24-well Transwell inserts (Corning). Cultures were incubated at 37° C. in 5% CO2.
Each human ileum monolayer culture well was washed twice with fresh SBM on the apical side on day 6 before compound dosing. All compound stocks were 10 mM dissolved in DMSO. Each compound stock was individually mixed with fresh SBM to reach final compound concentration 1 μM and dosed only on the apical side of the monolayer (total volume 200 μl). DMSO at the equivalent concentration was used as the vehicle control. Duplicate wells were dosed for each compound. On day 8, apical media pH was measured by pH electrode, to determine the ability of example compounds to produce sustained inhibition of NHE3 activity in a human monolayer culture system by preventing proton secretion into the apical compartment.
Human duodenum organoids were cultured in WENRNAS (Wnt, EGF, noggin, R-spondin1, Nicotinamide, A83-01, SB202190) and typically grown for 7-12 days before being used to plate monolayer cultures. On day 0, organoid cultures embedded in Matrigel were treated with TrypLE Express to break organoids into small pieces and/or single cells. The cells were resuspended to 0.5×10^6 cells/mL in SBM containing WENRAY (Wnt, EGF, noggin, R-spondin1, A83-01, Y-27632). Following this step, 200 μL of cell suspension was plated into the apical side of a 24-well Transwell (100,000 cells/well) and 600 μL of SBM with WENRAY was added to the basolateral side. Duodenum cells were differentiated with ENA (EGF, noggin, A83-01) on day 3. The color of apical compartment turns from pink or orange to yellow due to the increase in NHE3 expression after differentiation.

| % inhibition (NHE3) | pIC50 (NHE3) | SMILES | inhibition at 1 µM [1] |
| --- | --- | --- | --- |
| C (>70%) | C (NHE3 pIC50 > 7) | Cc1cc(S(=O)(=O)NCCOCCOCCNC(=O)NCCCCNC(=O)NCCOCCOCCNS(=O)(=O)c2ccc(O[C@H]3c4cc(Cl)cc(C)c4C[C@@H]3N(C)C)c(C)c2)ccc1O[C@H]1c2cc(Cl)cc(C)c2C[C@@H]1N(C)C [Example 17, 3-[2-(2-[2-[(4-[[(1S,2S)-6-Chloro-2-(dimethylamino)-4-methyl-2,3-dihydro-1H-inden-1-yl]oxy]-3-methylbenzene)sulfonamido]ethoxy]ethoxy)ethyl]-1-[4-([[2-(2-[2-[(4-[[(1S,2S)-6-chloro-2-(dimethylamino)-4-methyl-2,3-dihydro-1H-inden-1-yl]oxy]-3-methylbenzene)sulfonamido]ethoxy]ethoxy)ethyl]carbamoyl]amino)butyl]urea] | 50 to 70% |
| C (>70%) | C (NHE3 pIC50 > 7) | N#Cc1cc(Cl)cc2c1C[C@H](N1CCNCC1)[C@H]2Oc1ccc(S(=O)(=O)NCCOCCOCCNC(=O)NCCCCNC(=O)NCCOCCOCCNS(=O)(=O)c2ccc(O[C@H]3c4cc(Cl)cc(C#N)c4C[C@@H]3N3CCNCC3)c(F)c2)cc1F [Example 43, 3-[2-(2-[2-[(4-[[(1S,2S)-6-Chloro-4-cyano-2-(piperazin-1-yl)-2,3-dihydro-1H-inden-1-yl]oxy]-3-fluorobenzene)sulfonamido]ethoxy]ethoxy)ethyl]-1-[4-([[2-(2-[2-[(4-[[(1S,2S)-6-chloro-4-cyano-2-(piperazin-1-yl)-2,3-dihydro-1H-inden-1-yl]oxy]-3-fluorobenzene)sulfonamido]ethoxy]ethoxy)ethyl]carbamoyl]amino)butyl]urea; bis(trifluoroacetic acid)] | > 70% |
| C (>70%) | C (NHE3 pIC50 > 7) | Cc1cc(S(=O)(=O)N2CC[C@@H](COCCOCCNC(=O)NCCCCNC(=O)NCCOCCOC[C@@H]3CCN(S(=O)(=O)c4ccc(O[C@H]5c6cc(Cl)cc(Cl)c6C[C@@H]5N(C)C)c(C)c4)C3)C2)ccc1O[C@H]1c2cc(Cl)cc(Cl)c2C[C@@H]1N(C)C [Example 45, 3-[2-(2-[[(3R)-1-[(4-[[(1S,2S)-4,6-Dichloro-2-(dimethylamino)-2,3-dihydro-1H-inden-1-yl]oxy]-3-methylbenzene)sulfonyl]pyrrolidin-3-yl]methoxy]ethoxy)ethyl]-1-[4-([[2-(2[[(3R)-1-[(4-[[(1S,2S)-4,6-dichloro-2-(dimethylamino)-2,3-dihydro-1H-inden-1-yl]oxy]-3-methylbenzene)sulfonyl]pyrrolidin-3-yl]methoxy]ethoxy)ethyl]carbamoyl]amino)butyl]urea; bis(trifluoroacetic acid)] | > 70% |
| C (>70%) | – | O=C(NCCCCNC(=O)NCCOCCOCCNS(=O)(=O)c1ccc(O[C@H]2c3cc(Cl)cc(Cl)c3C[C@@H]2N2CCNCC2)c(F)c1)NCCOCCOCCNS(=O)(=O)c1ccc(O[C@H]2c3cc(Cl)cc(Cl)c3C[C@@H]2N2CCNCC2)c(F)c1 [Example 33, 3-[2-(2-[2-[(4-[[(1S,2S)-4,6-Dichloro-2-(piperazin-1-yl)-2,3-dihydro-1H-inden-1-yl]oxy]-3-fluorobenzene)sulfonamido]ethoxy]ethoxy)ethyl]-1-[4-[[(2-(2-[2-[(4-[[(1S,2S)-4,6-dichloro-2-(piperazin-1-yl)-2,3-dihydro-1H-inden-1-y]oxy]-3-fluorobenzene)sulfonamido]ethoxy]ethoxy)ethyl]carbamoyl]amino)butyl]urea; bis(trifluoroacetic acid)] | > 70% |
